Numbered stars: 1 amine (or outer) side, 2 acyl side, 3 side chain; on linkers, the order of the positions; unused ones are H or OH. Bridge positions count the residues as written; N and C are the ends. Square brackets hold non-standard residues; d marks the D form. Peptide text beside a SMILES is read from it. * marks the point of attachment. TtdsdLys(DOTA)NH2 = NC(=O)[C@@H](CCCCNC(=O)CN1CCN(CC(=O)O)CCN(CC(=O)O)CCN(CC(=O)O)CC1)NC(=O)CCC(=O)NCCCOCCOCCOCCCN*; X9 = C=C(N([C@@H](Cc1ccc(Cl)cc1)C(=O)[*:2])[*:1])C(C)(C)NC(=O)[C@@H](NC(C)=O)[C@@H](C)O; DOTA = O=C(O)CN1CCN(CC(=O)O)CCN(CC(=O)*)CCN(CC(=O)O)CC1; Arg(Me2a) = CN(C)C(=N)NCCC[C@H](N)C(=O)O; Phe(4-Cl) = N[C@@H](Cc1ccc(Cl)cc1)C(=O)O; Arg(Me) = CNC(=N)NCCC[C@H](N)C(=O)O; Lys(iPr) = CC(C)NCCCC[C@H](N)C(=O)O; d(αMeD) = C[C@@](N)(CC(=O)O)C(=O)O; NMeR = CN[C@@H](CCCNC(=N)N)C(=O)O; X1 = O=C(CC1CCN([*:1])CC1)[*:2]; Cit = NC(=O)NCCC[C@H](N)C(=O)O; Lys(Me) = CNCCCC[C@H](N)C(=O)O; Tle = CC(C)(C)[C@H](N)C(=O)O; αMeP = C[C@@]1(C(=O)O)CCCN1; Nle = CCCC[C@H](N)C(=O)O; Orn = NCCC[C@H](N)C(=O)O; Aib = CC(C)(N)C(=O)O; Guanidino = N=C(N)N*; Sar = CNCC(=O)O
Key:
[1] = target: T1, PSMA-expressing C4-2 cells (Homo sapiens, UniProt Q04609); assay: FACS binding assay (competition with 50 nM PSM-0183); conditions: FACS binding, C4-2 cells, competition with 50 nM PSM-0183; category; read-out: pIC50 [C4-2] CAT (converted)
T1 construct: PSMA-expressing C4-2 cells (ATCC, Cat. No. CRL-3314) were cultured in RPMI-1640; host or cells: C4-2 cells
T1 sequence (Q04609 whole entry): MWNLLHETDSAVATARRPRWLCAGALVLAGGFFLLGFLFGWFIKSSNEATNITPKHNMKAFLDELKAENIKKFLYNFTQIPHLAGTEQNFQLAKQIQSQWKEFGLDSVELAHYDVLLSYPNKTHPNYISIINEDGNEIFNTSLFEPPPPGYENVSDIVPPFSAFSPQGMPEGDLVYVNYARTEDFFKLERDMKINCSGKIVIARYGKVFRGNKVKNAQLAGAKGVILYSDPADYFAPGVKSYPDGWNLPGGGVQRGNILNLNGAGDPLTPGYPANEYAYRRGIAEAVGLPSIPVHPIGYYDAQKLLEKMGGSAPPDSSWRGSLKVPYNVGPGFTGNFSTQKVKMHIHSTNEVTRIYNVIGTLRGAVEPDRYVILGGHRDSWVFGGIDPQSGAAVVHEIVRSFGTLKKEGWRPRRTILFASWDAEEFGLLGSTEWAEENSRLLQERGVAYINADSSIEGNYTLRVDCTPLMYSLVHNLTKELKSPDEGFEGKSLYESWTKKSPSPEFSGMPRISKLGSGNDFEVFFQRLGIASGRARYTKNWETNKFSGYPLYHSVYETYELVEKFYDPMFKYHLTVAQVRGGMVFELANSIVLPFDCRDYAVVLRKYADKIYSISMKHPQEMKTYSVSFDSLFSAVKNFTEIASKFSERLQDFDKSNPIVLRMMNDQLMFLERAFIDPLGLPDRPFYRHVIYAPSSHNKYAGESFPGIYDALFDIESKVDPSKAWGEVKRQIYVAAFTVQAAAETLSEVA
How it was run: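 C4-2 cells were incubated 1 h at 4 °C with 50 nM AF488-labelled peptide PSM-0183 plus increasing test compound concentrations, then washed twice in ice-cold buffer. Median fluorescence in the AF488 channel was read by flow cytometry. IC50/pIC50 was derived by 4PL fitting of MFI versus concentration.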

[2] = target: T2, Fc-fusion protein of human PSMA (hPSMA-Fc) (Homo sapiens, UniProt Q04609); assay: Surface plasmon resonance assay (Biacore T200, single cycle kinetic); format: binding; conditions: SPR, hPSMA-Fc, single cycle kinetic, 25° C.; category; read-out: pKD CAT (converted)
T2 construct: purchased Acro Biosystems PSA-H5264
T2 sequence (Q04609 44-750 limits assumed): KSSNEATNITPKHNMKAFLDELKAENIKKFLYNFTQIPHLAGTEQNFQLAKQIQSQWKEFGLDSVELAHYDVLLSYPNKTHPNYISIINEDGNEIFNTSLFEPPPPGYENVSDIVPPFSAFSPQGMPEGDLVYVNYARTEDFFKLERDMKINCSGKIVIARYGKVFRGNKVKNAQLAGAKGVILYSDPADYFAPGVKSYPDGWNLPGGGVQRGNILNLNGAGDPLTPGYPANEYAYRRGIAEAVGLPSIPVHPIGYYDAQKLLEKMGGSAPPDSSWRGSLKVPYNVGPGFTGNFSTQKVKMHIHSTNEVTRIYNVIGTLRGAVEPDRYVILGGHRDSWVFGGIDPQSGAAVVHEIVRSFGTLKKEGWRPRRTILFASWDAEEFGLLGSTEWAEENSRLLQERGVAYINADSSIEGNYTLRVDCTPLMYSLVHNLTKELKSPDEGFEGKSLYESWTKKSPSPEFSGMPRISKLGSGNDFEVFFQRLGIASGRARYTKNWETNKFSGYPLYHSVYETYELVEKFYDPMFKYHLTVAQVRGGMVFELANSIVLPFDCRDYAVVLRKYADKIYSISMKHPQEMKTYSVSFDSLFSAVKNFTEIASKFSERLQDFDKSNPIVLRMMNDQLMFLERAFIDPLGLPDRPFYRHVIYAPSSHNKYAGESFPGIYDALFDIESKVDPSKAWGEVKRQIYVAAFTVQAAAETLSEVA
How it was run: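 hPSMA-Fc was captured (~1000 RU) on an Fc-binding-peptide CM5 chip, and compounds were run in single cycle kinetic mode at 25° C in HBST with 0.1% DMSO. Double-blank-corrected sensorgrams were fitted to a 1:1 Langmuir model to give KD, reported as pKD.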

SMILES	IC50 [1] [nM]	Kd [2] [nM]
C[C@@H](O)[C@H](NC(=O)[C@@H](NC(=O)[C@@H]1CSSC[C@H](NC(=O)[C@H](Cc2ccc(Cl)cc2)NC(=O)C(C)(C)NC(=O)[C@@H](NC(=O)CC2CCN(C(=O)CN3CCN(CC(=O)O)CCN(CC(=O)O)CCN(CC(=O)O)CC3)CC2)[C@@H](C)O)C(=O)N[C@@H](CCCCN)C(=O)N[C@@H](CCCNC(=N)N)C(=O)N[C@](C)(CC(=O)O)C(=O)N[C@@H](CC(N)=O)C(=O)N1)C(C)(C)C)C(N)=O [PSM-0227, DOTA-Cmp-Thr-Aib-Pcf-[Cys-Lys-Arg-amd-Asn-Cys]-Tle-Thr-NH2] ({DOTA}-[X1]T[Aib][Phe(4-Cl)]CKR[d(αMeD)]NC[Tle]T-NH2; disulfide 5-10)	< 200	< 12.6
CC(=O)NC(C)(C)C(=O)N[C@@H](Cc1ccccc1)C(=O)N[C@H]1CSSC[C@@H](C(=O)N[C@H](C(=O)N[C@H](C(N)=O)[C@@H](C)O)C(C)(C)C)NC(=O)[C@H](CC(N)=O)NC(=O)C(C)(C)NC(=O)[C@H](CCCNC(=N)N)NC(=O)[C@H](CCCCN)NC1=O [PSM-0228, Ac-Aib-Phe-[Cys-Lys-Arg-Aib-Asn-Cys]-Tle-Thr-NH2] (Ac-[Aib]FCKR[Aib]NC[Tle]T-NH2; disulfide 3-8)	< 200	< 12.6
CC(=O)N[C@H](C(=O)NC(C)(C)C(=O)N[C@@H](Cc1ccccc1)C(=O)N[C@H]1CSSC[C@@H](C(=O)N[C@H](C(N)=O)C(C)(C)C)NC(=O)[C@H](CC(N)=O)NC(=O)C(C)(C)NC(=O)[C@H](CCCNC(=N)N)NC(=O)[C@H](CCCCN)NC1=O)[C@@H](C)O [PSM-0230, Ac-Thr-Aib-Phe-[Cys-Lys-Arg-Aib-Asn-Cys]-Tle-NH2] (Ac-T[Aib]FCKR[Aib]NC[Tle]-NH2; disulfide 4-9)	< 200	< 12.6
CC(=O)N[C@H](C(=O)NC(C)(C)C(=O)N[C@@H](Cc1ccccc1)C(=O)N[C@H]1CSSC[C@@H](C(=O)N[C@H](C(=O)N[C@H](C(=O)NCCCOCCOCCOCCCNC(=O)CCC(=O)N[C@H](CCCCNC(=O)CN2CCN(CC(=O)O)CCN(CC(=O)O)CCN(CC(=O)O)CC2)C(N)=O)[C@@H](C)O)C(C)(C)C)NC(=O)[C@H](CC(N)=O)NC(=O)[C@H](C)NC(=O)[C@H](CCCNC(=N)N)NC(=O)[C@H](CCCCN)NC1=O)[C@@H](C)O [PSM-0231, Ac-Thr-Aib-Phe-[Cys-Lys-Arg-Ala-Asn-Cys]-Tle-Thr-Ttds-lys(DOTA)-NH2] (Ac-T[Aib]FCKRANC[Tle]T-{TtdsdLys(DOTA)NH2}; disulfide 4-9)	< 200	< 12.6
CC(=O)N[C@H](C(=O)NC(C)(C)C(=O)N[C@@H](Cc1ccccc1)C(=O)N[C@H]1CSSC[C@@H](C(=O)N[C@H](C(=O)N[C@H](C(N)=O)[C@@H](C)O)C(C)(C)C)NC(=O)[C@H](CC(N)=O)NC(=O)CN(C)C(=O)[C@H](CCCNC(=N)N)NC(=O)[C@H](CCCCN)NC1=O)[C@@H](C)O [PSM-0232, Ac-Thr-Aib-Phe-[Cys-Lys-Arg-Nmg-Asn-Cys]-Tle-Thr-NH2] (Ac-T[Aib]FCKR[Sar]NC[Tle]T-NH2; disulfide 4-9)	< 200	< 12.6
CC(=O)N[C@H](C(=O)NC(C)(C)C(=O)N[C@@H](Cc1ccccc1)C(=O)N[C@H]1CSSC[C@@H](C(=O)N[C@H](C(=O)N[C@H](C(N)=O)[C@@H](C)O)C(C)(C)C)NC(=O)[C@H](CC(N)=O)NC(=O)[C@]2(C)CCCN2C(=O)[C@H](CCCNC(=N)N)NC(=O)[C@H](CCCCN)NC1=O)[C@@H](C)O [PSM-0233, Ac-Thr-Aib-Phe-[Cys-Lys-Arg-Pam-Asn-Cys]-Tle-Thr-NHZ] (Ac-T[Aib]FCKR[αMeP]NC[Tle]T-NH2; disulfide 4-9)	< 200	< 12.6
CC(=O)N[C@H](C(=O)NC(C)(C)C(=O)N[C@@H](Cc1ccccc1)C(=O)N[C@H]1CSSC[C@@H](C(=O)N[C@H](C(=O)N[C@H](C(N)=O)[C@@H](C)O)C(C)(C)C)NC(=O)[C@H](CC(N)=O)NC(=O)C(C)(C)NC(=O)[C@H](CCCNC(=N)N)N(C)C(=O)[C@H](CCCCN)NC1=O)[C@@H](C)O [PSM-0235, Ac-Thr-Aib-Phe-[Cys-Lys-Nmr-Aib-Asn-Cys]-Tle-Thr-NH2] (Ac-T[Aib]FCK[NMeR][Aib]NC[Tle]T-NH2; disulfide 4-9)	200 to 1260	126 to 501
CCCC[C@@H]1NC(=O)[C@@H](NC(=O)[C@H](Cc2ccc(Cl)cc2)NC(=O)C(C)(C)NC(=O)[C@@H](NC(C)=O)[C@@H](C)O)CSSC[C@@H](C(=O)N[C@H](C(=O)N[C@H](C(N)=O)[C@@H](C)O)C(C)(C)C)NC(=O)[C@H](CC(N)=O)NC(=O)C(C)(C)NC(=O)[C@H](CCC(=O)NC(=N)N)NC1=O [PSM-0236, Ac-Thr-Aib-Pcf-[Cys-Nle-Gln(Gu)-Aib-Asn-Cys]-Tle-Thr-NH2] (Ac-T[Aib][Phe(4-Cl)]C[Nle]E(Guanidino)[Aib]NC[Tle]T-NH2; disulfide 4-9)	< 200	< 12.6
CC(=O)N[C@H](C(=O)NC(C)(C)C(=O)N[C@@H](Cc1ccc(Cl)cc1)C(=O)N[C@H]1CSSC[C@@H](C(=O)N[C@H](C(=O)N[C@H](C(N)=O)[C@@H](C)O)C(C)(C)C)NC(=O)[C@H](Cc2c[nH]c3ccccc23)NC(=O)C(C)(C)NC(=O)[C@H](CCCNC(N)=O)NC(=O)[C@H](CCCCN)NC1=O)[C@@H](C)O [PSM-0238, Ac-Thr-Aib-Pcf-[Cys-Lys-Cit-Aib-Trp-Cys]-Tle-Thr-NH2] (Ac-T[Aib][Phe(4-Cl)]CK[Cit][Aib]WC[Tle]T-NH2; disulfide 4-9)	< 200	< 12.6
C=C(N[C@@H](Cc1ccc(Cl)cc1)C(=O)N[C@H]1CSSC[C@@H](C(=O)N[C@H](C(=O)N[C@H](C(N)=O)[C@@H](C)O)C(C)(C)C)NC(=O)[C@H](CCCNC(=N)N)NC(=O)C(C)(C)NC(=O)[C@H](CCCNC(N)=O)NC(=O)[C@H](CCCCN)NC1=O)C(C)(C)NC(=O)[C@@H](NC(C)=O)[C@@H](C)O [PSM-0240, Ac-Thr-Aib-Pcf-[Cys-Lys-Cit-Aib-Arg-Cys]-Tle-Thr-NH2] (H-[X9]CK[Cit][Aib]RC[Tle]T-NH2; disulfide 2-7)	< 200	< 12.6
CNC(=N)NCCC[C@@H]1NC(=O)[C@H](CCCCNC(C)C)NC(=O)[C@@H](NC(=O)[C@H](Cc2ccc(Cl)cc2)NC(=O)C(C)(C)NC(=O)[C@@H](NC(=O)CC2CCN(C(=O)CN3CCN(CC(=O)O)CCN(CC(=O)O)CCN(CC(=O)O)CC3)CC2)[C@@H](C)O)CSSC[C@@H](C(=O)N[C@H](C(=O)N[C@H](C(N)=O)[C@@H](C)O)C(C)(C)C)NC(=O)[C@H](CC(N)=O)NC(=O)C(C)(C)NC1=O [PSM-0244, DOTA-Cmp-Thr-Aib-Pcf-[Cys-Kip-Arg(Me)-Aib-Asn-Cys]-Tle-Thr-NH2] ({DOTA}-[X1]T[Aib][Phe(4-Cl)]C[Lys(iPr)][Arg(Me)][Aib]NC[Tle]T-NH2; disulfide 5-10)	< 200	< 12.6
C[C@@H](O)[C@H](NC(=O)[C@@H](NC(=O)[C@@H]1CSSC[C@H](NC(=O)[C@H](Cc2ccc(Cl)cc2)NC(=O)C(C)(C)NC(=O)[C@@H](NC(=O)CC2CCN(C(=O)CN3CCN(CC(=O)O)CCN(CC(=O)O)CCN(CC(=O)O)CC3)CC2)[C@@H](C)O)C(=O)N[C@@H](CCCCN)C(=O)N[C@@H](CCCN)C(=O)NC(C)(C)C(=O)N[C@@H](CC(N)=O)C(=O)N1)C(C)(C)C)C(N)=O [PSM-0245, DOTA-Cmp-Thr-Aib-Pcf-[Cys-Lys-Orn-Aib-Asn-Cys]-Tle-Thr-NH2] ({DOTA}-[X1]T[Aib][Phe(4-Cl)]CK[Orn][Aib]NC[Tle]T-NH2; disulfide 5-10)	< 200	< 12.6
CNCCCC[C@@H]1NC(=O)[C@@H](NC(=O)[C@H](Cc2ccc(Cl)cc2)NC(=O)C(C)(C)NC(=O)[C@@H](NC(=O)CC2CCN(C(=O)CN3CCN(CC(=O)O)CCN(CC(=O)O)CCN(CC(=O)O)CC3)CC2)[C@@H](C)O)CSSC[C@@H](C(=O)N[C@H](C(=O)N[C@H](C(N)=O)[C@@H](C)O)C(C)(C)C)NC(=O)[C@H](CC(N)=O)NC(=O)[C@@H](C)NC(=O)[C@H](CCCNC(=N)NC)NC1=O [PSM-0246, DOTA-Cmp-Thr-Aib-Pcf-[Cys-Lys(Me)-Arg(Me)-ala-Asn-Cys]-Tle-Thr-NH2] ({DOTA}-[X1]T[Aib][Phe(4-Cl)]C[Lys(Me)][Arg(Me)][dA]NC[Tle]T-NH2; disulfide 5-10)	< 200	< 12.6
CNCCCC[C@@H]1NC(=O)[C@@H](NC(=O)[C@H](Cc2ccc(Cl)cc2)NC(=O)C(C)(C)NC(=O)[C@@H](NC(=O)CC2CCN(C(=O)CN3CCN(CC(=O)O)CCN(CC(=O)O)CCN(CC(=O)O)CC3)CC2)[C@@H](C)O)CSSC[C@@H](C(=O)N[C@H](C(=O)N[C@H](C(N)=O)[C@@H](C)O)C(C)(C)C)NC(=O)[C@H](CC(N)=O)NC(=O)C(C)(C)NC(=O)[C@H](CCCNC(=N)N(C)C)NC1=O [PSM-0247, DOTA-Cmp-Thr-Aib-Pcf-[Cys-Lys(Me)-RMe2-Aib-Asn-Cys]-Tle-Thr-NH2] ({DOTA}-[X1]T[Aib][Phe(4-Cl)]C[Lys(Me)][Arg(Me2a)][Aib]NC[Tle]T-NH2; disulfide 5-10)	< 200	< 12.6
